23 compounds from patent publication EP1345943B1, “INHIBITORS OF PAPILLOMA VIRUS” (BOEHRINGER INGELHEIM (CANADA) LTD., priority 2000, dated 2002) can be followed below.

In general, IC50 refers to the concentration that inhibits the measured activity by half. High values mean weaker potency in that assay, low ones greater potency in that assay.

Where only a bound is given, the exact number is not on record here.

This experiment addresses E1-E2-DNA complex (Human papillomavirus 11, UniProt P04015). The experiment is described as follows: E2-dependent E1 DNA binding assay (E1-E2 DNA assay). To be noted: E1-E2 DNA assay of Example 11, HPV-11. The essentials:
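SPA-format binding of E1 (about 100-200 ng purified) and E2 (8 ng) to a 0.4 ng [33P]-labelled 400 bp HPV-11 origin probe, in 20 mM Tris pH 7.6, 100 mM NaCl, 1 mM DTT, 1 mM EDTA, for 1 h at room temperature. Complex captured 1 h with anti-E1 C-terminal antiserum on protein A-SPA beads and counted by scintillation; IC50 derived.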

E1-E2-DNA complex, sequence (P04015 whole entry, one chain of several): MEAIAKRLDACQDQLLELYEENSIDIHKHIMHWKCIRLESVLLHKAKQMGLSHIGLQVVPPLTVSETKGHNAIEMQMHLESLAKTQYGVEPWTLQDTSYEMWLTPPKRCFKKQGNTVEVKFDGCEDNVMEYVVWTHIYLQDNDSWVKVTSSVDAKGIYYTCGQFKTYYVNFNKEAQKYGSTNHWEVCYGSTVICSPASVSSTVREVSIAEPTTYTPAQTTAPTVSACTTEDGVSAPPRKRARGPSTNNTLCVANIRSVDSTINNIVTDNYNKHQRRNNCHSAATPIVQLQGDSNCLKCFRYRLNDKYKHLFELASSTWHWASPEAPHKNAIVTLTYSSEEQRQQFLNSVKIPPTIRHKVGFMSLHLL

Turning to `Cc1cc2c(s1)C1(O)OC(=O)C3C(C(=O)Nc4ccc(N5CCOCC5)cc4)C(c4ccc(Br)c(Br)c4)OC31C2=O` (single isomer, unassigned) [Compound D1002], the IC50 is < 0.5 µM.

For `Cc1cc(C)cc(NC(=O)C2C(c3ccc(Cl)c(Cl)c3)OC3(C(=O)c4ccccc4C3=O)C2C(=O)O)c1` (centres unmarked) [Compound 1126], the IC50 lay within 0.5 to 5 µM.

`O=C(Nc1ccc(N2CCOCC2)cc1)C1C(c2ccc(Br)c(Br)c2)OC2(C(=O)c3ccccc3C2=O)C1C(=O)O` (centres unmarked) [10,001] yielded an IC50 of 0.5 to 5 µM.

Turning to `O=C(Nc1ccccc1Cl)C1C(c2ccc(Cl)c(Cl)c2)OC2(C(=O)c3ccccc3C2=O)C1C(=O)O` (centres unmarked) [Compound 1123], the IC50 is < 0.5 µM.

In the case of `CC(C)(C)c1ccc(NC(=O)C2C(c3ccc(Cl)c(Cl)c3)OC3(C(=O)c4ccccc4C3=O)C2C(=O)O)cc1` (centres unmarked) [Compound 1060], the IC50 fell in the range of 0.5 to 5 µM.

In turn, `O=C(Nc1ccc2c(c1)OCO2)C1C(c2ccc(Cl)c(Cl)c2)OC2(C(=O)c3cccc(F)c3C2=O)C1C(=O)O` (centres unmarked) [Compound 1048] returned an IC50 of 0.5 to 5 µM.

Compound `O=C(Nc1ccc(Br)c(Cl)c1)C1C(c2ccc(Br)c(Br)c2)OC2(C(=O)c3ccccc3C2=O)C1C(=O)O` (racemic) [Compound 1102] returned an IC50 of 0.5 to 5 µM.

`O=C(Nc1ccc(Cl)cc1)C1C(c2ccc(Cl)c(Cl)c2)OC2(C(=O)c3ccccc3C2=O)C1C(=O)O` (centres unmarked) [Compound 1101] returned an IC50 of 0.5 to 5 µM.

Regarding `O=C(Nc1ccc2c(c1)OCO2)C1C(c2ccc(C(F)(F)F)c(F)c2)OC2(C(=O)c3ccccc3C2=O)C1C(=O)O` (centres unmarked) [Compound 1045], the IC50 was in the range of 0.5 to 5 µM.

In turn, `CSc1ccc(NC(=O)C2C(c3ccc(F)c(F)c3)OC3(C(=O)c4ccccc4C3=O)C2C(=O)O)cc1` (centres unmarked) [Compound 1073] gave an IC50 of 5 to 50 µM.

Turning to `COc1ccc(NC(=O)C2C(c3ccc(Cl)cc3)OC3(C(=O)c4ccccc4C3=O)C2C(=O)O)cc1OC` (centres unmarked) [Compound 1004], the IC50 lay in the range of 5 to 50 µM.

For `Cc1ccc2c(c1)C1(O)OC(=O)C3C(C(=O)Nc4ccc(N5CCOCC5)cc4)C(c4ccc(Br)c(Br)c4)OC31C2=O` (single isomer, unassigned) [Compound B1003], the IC50 is < 0.5 µM.

Compound `O=C(Nc1ccccc1)C1C(c2ccc(Cl)cc2)OC2(C(=O)c3ccccc3C2=O)C1C(=O)O` (centres unmarked) [Compound 1011] came in with an IC50 of 5 to 50 µM.

Consider `CC(C)(C)c1ccc(NC(=O)C2C(c3ccc(Br)c(Br)c3)OC3(C(=O)c4ccccc4C3=O)C2C(=O)O)cc1` (centres unmarked) [Compound 1079], for which the IC50 is 5 to 50 µM.

Compound `CC(=O)c1ccc(NC(=O)C2C(C=Cc3ccccc3Br)OC3(C(=O)c4ccccc4C3=O)C2C(=O)O)cc1` (centres unmarked) [Compound 4007] displayed an IC50 of 0.5 to 5 µM.

The compound `Cc1cc2c(s1)C(=O)C13OC(c4ccc(Br)c(Br)c4)C(C(=O)Nc4ccc(CNC(=O)OC(C)(C)C)cc4)C1C(=O)OC23O` (centres unmarked) [Compound C1003] registered an IC50 of 0.5 to 5 µM.

As for `COC(=O)C1C(C(=O)Nc2ccc3c(c2)OCO3)C(c2ccc(Cl)c(Cl)c2)OC12C(=O)c1ccccc1C2=O` (racemic) [Compound 1022], the IC50 lay within 0.5 to 5 µM.

In the case of `CC(C)(C)NC(=O)C1C(c2ccc(Cl)c(Cl)c2)OC2(C(=O)c3ccccc3C2=O)C1C(=O)O` (centres unmarked) [Compound 1046], the IC50 fell in the range of 0.5 to 5 µM.

In turn, `COc1ccc(OC)c(CCNC(=O)C2C(c3ccc(Cl)c(Cl)c3)OC3(C(=O)c4ccccc4C3=O)C2C(=O)O)c1` (centres unmarked) [Compound 1137] had an IC50 of 0.5 to 5 µM.

For the compound `CS(=O)(=O)c1ccc(NC(=O)C2C(c3ccc(Cl)c(Cl)c3)OC3(C(=O)c4ccccc4C3=O)C2C(=O)O)cc1` (centres unmarked) [Compound 1053], the IC50 was 0.5 to 5 µM.

The compound `Cc1ccc2c(c1)C1(O)OC(=O)C3C(C(=O)NCCc4ccccc4Cl)C(c4ccc(Br)c(Br)c4)OC31C2=O` (single isomer, unassigned) [Compound B1005] displayed an IC50 of 5 to 50 µM.

Take `CC(NC(=O)C1C(c2ccc(Cl)c(Cl)c2)OC23C(=O)c4ccccc4C2(O)OC(=O)C13)c1ccccc1` (racemic) [Compound 3007]: the IC50 lay in the range of 5 to 50 µM.

`O=C1C2C(c3ccc(Cl)cc3)OC3(C(=O)c4ccccc4C3=O)C2C(=O)N1c1ccc2c(c1)OCO2` (centres unmarked) [Compound 2001] showed an IC50 of 5 to 50 µM.
